In brackets after ≈: the same amount, converted by molar mass.
Key:
Type in all cases: cell-based
E. coli MP-4 = assay: MIC determination by CLSI broth dilution, E. coli MP-4; details: Escherichia coli, MP4, CLSI broth dilution; strain MP-4
K. pneumoniae MP-648 = assay: MIC determination by CLSI broth dilution, K. pneumoniae MP-648; details: Klebsiella pneumoniae, MP648, CLSI broth dilution; strain MP-648
A. baumannii MP-15 = assay: MIC determination by CLSI broth dilution, A. baumannii MP-15; details: Acinetobacter baumannii, MP15, strain MP-15, read-out: MIC A. baumanii MP-15
S. aureus MP-12 = assay: microbe, parasite or virus in culture; details: Staphylococcus aureus, MP12, read-out: MIC S. aureus MP-12
P. aeruginosa MP-3 = assay: MIC determination by CLSI broth dilution, P. aeruginosa MP-3; details: Pseudomonas aeruginosa, MP3, strain MP-3

SMILES | MIC (E. coli MP-4) | MIC (K. pneumoniae MP-648) | MIC (A. baumannii MP-15) | MIC (S. aureus MP-12) | MIC (P. aeruginosa MP-3)
CCN(C)[C@H]1C[C@H](C[C@]2(C)COC(=O)C(C)(C)C(=O)[C@H](C)[C@@H](O[C@@H]3O[C@H](C)C[C@H](N(C)C)[C@H]3O)[C@](C)(OC)C[C@@H](C)CN2C)C1 [Compound 196] | < 4 µg/mL | > 32 µg/mL | > 32 µg/mL | 4 to 32 µg/mL (≈ 6.25 to 50 µM) | > 32 µg/mL
CO[C@]1(C)C[C@@H](C)CN(C)[C@](C)(C[C@H]2C[C@H](N(C)CC3CC3)C2)COC(=O)C(C)(C)C(=O)[C@H](C)[C@H]1O[C@@H]1O[C@H](C)C[C@H](N(C)C)[C@H]1O [Compound 197] | < 4 µg/mL | 4 to 32 µg/mL (≈ 6.01 to 48.1 µM) | > 32 µg/mL | 4 to 32 µg/mL (≈ 6.01 to 48.1 µM) | > 32 µg/mL
CO[C@]1(C)C[C@@H](C)CN(C)[C@](C)(C[C@H]2C[C@H](N(C)C(C)C)C2)COC(=O)C(C)(C)C(=O)[C@H](C)[C@H]1O[C@@H]1O[C@H](C)C[C@H](N(C)C)[C@H]1O [Compound 198] | 4 to 32 µg/mL (≈ 6.12 to 48.9 µM) | > 32 µg/mL | > 32 µg/mL | 4 to 32 µg/mL (≈ 6.12 to 48.9 µM) | > 32 µg/mL
CN[C@H]1C[C@H](C[C@]2(C)COC(=O)C(C)(C)C(=O)[C@H](C)[C@@H](O[C@@H]3O[C@H](C)C[C@H](N(C)C)[C@H]3O)[C@](C)(OC)C[C@@H](C)CN2C)C1 [Compound 199] | 4 to 32 µg/mL (≈ 6.54 to 52.3 µM) | > 32 µg/mL | > 32 µg/mL | 4 to 32 µg/mL (≈ 6.54 to 52.3 µM) | > 32 µg/mL
CCN1C[C@H](C)C[C@@](C)(OC)[C@H](O[C@@H]2O[C@H](C)C[C@H](N(C)C)[C@H]2O)[C@@H](C)C(=O)C(C)(C)C(=O)OC[C@H]1[C@H](O)CCO [Compound 200, (3S,6R,8R,9R,10R)-3-((R)-1,3-dihydroxypropyl)-9-(((2S,3R,4S,6R)-4-(dimethylamino)-3-hydroxy-6-methyltetrahydro-2H-pyran-2-yl)oxy)-4-ethyl-8-methoxy-6,8,10,12,12-pentamethyl-1-oxa-4-azacyclotridecane-11,13-dione] | 4 to 32 µg/mL (≈ 6.79 to 54.3 µM) | > 32 µg/mL | > 32 µg/mL | > 32 µg/mL | > 32 µg/mL
CO[C@]1(C)C[C@@H](C)CN(C)[C@H]([C@H](O)[C@@H](O)CO)COC(=O)C(C)(C)C(=O)[C@H](C)[C@H]1O[C@@H]1O[C@H](C)C[C@H](N(C)C)[C@H]1O [Compound 201] | 4 to 32 µg/mL (≈ 6.77 to 54.2 µM) | > 32 µg/mL | > 32 µg/mL | > 32 µg/mL | > 32 µg/mL
CCCN(CCC)CC[C@@H](O)[C@@H]1COC(=O)C(C)(C)C(=O)[C@H](C)[C@@H](O[C@@H]2O[C@H](C)C[C@H](N(C)C)[C@H]2O)[C@](C)(OC)C[C@@H](C)CN1CC [Compound 223] | < 4 µg/mL | 4 to 32 µg/mL (≈ 5.95 to 47.6 µM) | > 32 µg/mL | 4 to 32 µg/mL (≈ 5.95 to 47.6 µM) | > 32 µg/mL
CCN1C[C@H](C)C[C@@](C)(OC)[C@H](O[C@@H]2O[C@H](C)C[C@H](N(C)C)[C@H]2O)[C@@H](C)C(=O)C(C)(C)C(=O)OC[C@H]1[C@H](O)CCN(C)C(C)C [Compound 224] | < 4 µg/mL | 4 to 32 µg/mL (≈ 6.21 to 49.7 µM) | > 32 µg/mL | 4 to 32 µg/mL (≈ 6.21 to 49.7 µM) | > 32 µg/mL
CCN1C[C@H](C)C[C@@](C)(OC)[C@H](O[C@@H]2O[C@H](C)C[C@H](N(C)C)[C@H]2O)[C@@H](C)C(=O)C(C)(C)C(=O)OC[C@H]1[C@H](O)CCN(C)CCO [Compound 225] | < 4 µg/mL | 4 to 32 µg/mL (≈ 6.19 to 49.5 µM) | > 32 µg/mL | 4 to 32 µg/mL (≈ 6.19 to 49.5 µM) | > 32 µg/mL
CCN1C[C@H](C)C[C@@](C)(OC)[C@H](O[C@@H]2O[C@H](C)C[C@H](N(C)C)[C@H]2O)[C@@H](C)C(=O)C(C)(C)C(=O)OC[C@H]1[C@H](O)CCN(C1CC1)C1Cc2ccccc2C1 [Compound 226] | < 4 µg/mL | 4 to 32 µg/mL (≈ 5.38 to 43 µM) | > 32 µg/mL | 4 to 32 µg/mL (≈ 5.38 to 43 µM) | > 32 µg/mL
CO[C@]1(C)C[C@@H](C)CN(C)[C@H]([C@](C)(O)CCN2CCCC2)COC(=O)C(C)(C)C(=O)[C@H](C)[C@H]1O[C@@H]1O[C@H](C)C[C@H](N(C)C)[C@H]1O [Compound 227] | 4 to 32 µg/mL (≈ 6.23 to 49.9 µM) | > 32 µg/mL | > 32 µg/mL | 4 to 32 µg/mL (≈ 6.23 to 49.9 µM) | > 32 µg/mL

Reference: patent US12552825B2 (Zikani Therapeutics, Inc., priority 2019, dated 2026)
